Like-named read-outs stand apart in the source and are kept apart here.
Columns and labels:
[1] = test system: HIV-1 (H9/IIIB strain); assay: Multiple round HIV-1 infection assay (Viking assay) in MT4-GFP cells; format: cell-based; details: MT4-GFP cells infected with HIV-1 H9/IIIB, inhibition of reproductive ratio R0
Procedure: Assessing Antiviral Potency in a Multiple Round HIV-1 Infection Assay (Viking Assay)
The antiviral activity of the tenofovir prodrugs of the Examples herein was assessed in an assay that measures the rate of replication of HIV in cell culture, termed the Viking assay (Viral KINetics in Green cells) and performed as follows. HIV-1 replication was monitored using MT4-gag-GFP clone D3 (hereafter designated MT4-GFP), which are MT-4 cells modified to harbor a GFP reporter gene, the expression of which is dependent on the HIV-1 expressed proteins tat and rev. Productive infection of an MT4-GFP cell with HIV-1 results in GFP expression approximately 24 h post-infection. MT4-GFP cells were maintained at 37° C./5% CO2/90% relative humidity in RPMI 1640 supplemented with 10% fetal bovine serum, 100 μ/ml penicillin/streptomycin, and 400 μg/ml G418 to maintain the reporter gene. For infections, MT4-GFP cells were placed in the same medium lacking G418 and infected overnight with HIV-1 (H9/IIIB strain) virus at an approximate multiplicity of infection of 0.01 in the same incubation conditions. Cells were then washed and re-suspended in either RPMI 1640 supplemented with 10% or 50% normal human serum (NFIS) at 1.6×10^5 cells/mL (10% NHS or 50% NHS, respectively). Compound plates were prepared by dispensing compounds dissolved in DMSO into wells of 384 well poly-D -lysine-coated plates (0.2 μl/well) using an ECHO acoustic dispenser. Each compound was tested in a 10-point serial 3-fold dilution (typical final concentrations: 8.4 μM-0.42 nM). Controls included no inhibitor (DMSO only) and a combination of three antiviral agents (efavirenz, indinavir, an in-house integrase strand transfer inhibitor at final concentrations of 4 μM each). Cells were added (50 μL/well) to compound plates and the infected cells were maintained at 37° C./5% CO2/90% relative humidity.
infected cells were quantified at two time points, ˜48 h and ˜72 h post -infection, by counting the number of green cells in each well using an Acumen eX3 scanner. The increase in the number of green cells over ˜24 h period gives the reproductive ratio, R0, which is typically 5-15 and has been shown experimentally to be in logarithmic phase (data not shown). Inhibition of R0 is calculated for each well, and IC50s determined by non-linear 4-parameter curve fitting.

[2] = Prodrug stability assay in bio-relevant media (FaSSIF with Pancreatin, simulated gastrointestinal tract conditions); format: in vitro ADME; details: % parent prodrug remaining at 5 h vs 0 h, 37° C., 0.5 mg/mL Pancreatin in FaSSIF, HPLC area ratio
Procedure: Prodrug Stability Assay in Bio-Relevant Media
The following assay was employed to evaluate the stability of the prodrugs in simulated gastrointestinal tract conditions. Preparation of fasted state simulated intestinal fluid (FaSSIF) using Phares SIF Powder was carried out according to protocols from Phare Drug Delivery AG (Baselland, Switzerland). For sample preparation, 10 μL stock solutions (10 mM) of prodrug substance in DMSO was added to 990 μL of 0.5 mg/mL Pancreatin solution (Fisher CAS#8049-47-6) in FaSSIF. Two samples were prepared for each compound at initial. If the sample was clear solution at the beginning, ran one sample directly as initial by HPLC; if the sample was not clear at starting, diluted the sample by 100% ACN. Put the other sample under 37° C. and observed the sample at 5 h time-point. At 5 h time point, if the sample was clear solution then performed HPLC analysis directly; if it was not clear solution, diluted the sample by 100% ACN and assayed by HPLC. All the samples were vortexed for 3 min and observed before injection. For the diluted samples, the area will be multiplied by a factor when data analysis. The analysis was carried out with an Agilent 1100 series HPLC with autosampler. The column was usually a Poroshell 120 EC -C18, 4.6×50 mm, 2.7 μm. The flow rate was 1.8 mL/min, and the injection volume was 5 or 10 μL. UV detection was in the range 210-400 nm. The mobile phase consisted of solvent A (water plus 10 mM tetrabutylammonium bromide) and solvent B (acetonitrile) with a gradient of 90% solvent A at 0 min changing to 95% solvent B over 6 min, maintained for 1.5 min, then reverting to 90% solvent A over 1.6 min. The area of the parent in prodrug at 5h time point was divided by the area of the parent in prodrug at 0 h time point, to generate the % claimed parent ratio, which are summarized in Table 2 for GI Tract stability.

[3] = Human immunodeficiency virus 1, IIIB, 10% normal human serum, read-out: Viking, IC50 (10% NHS)
[4] = Human immunodeficiency virus 1, IIIB, 50% normal human serum, read-out: Viking, IC50 (50% NHS)
[5] = 10% normal human serum, read-out: Viking, IC50 (10% NHS)
[6] = 50% normal human serum, read-out: Viking, IC50 (50% NHS)

GI Tract stability [2] [%]	SMILES	IC50 [1, 3] [nM]	IC50 [1, 4] [nM]	IC50 [1, 5] [nM]	IC50 [1, 6] [nM]
98.18	CC(C)OC(=O)COP(=O)(CO[C@H](C)Cn1cnc2c(N)ncnc21)NC1(C(=O)OC(C)C)CC1 (stereo partly drawn) [Example 46, Isopropyl 1-((((((R)-1-(6-amino-9H-purin-9-yl)propan-2-yl)oxy)methyl)(2-isopropoxy-2-oxoethoxy)phosphoryl)amino) cyclopropane-1-carboxylate]	386	703		
100.00	CCCCCOC(=O)C(C)(C)NP(=O)(CO[C@H](C)Cn1cnc2c(N)ncnc21)O[C@@H](C)C(=O)OC1CCCC1 (single isomer, unassigned) [Example 19B]			3.01	9.93
99.72	CC(C)OC(=O)C(C)(C)NP(=O)(CO[C@H](C)Cn1cnc2c(N)ncnc21)O[C@@H](C)C(=O)OC1CCCC1 (single isomer, unassigned) [Example 13B]			9.44	60.2
99.32	CC(C)OC(=O)COP(=O)(CO[C@H](C)Cn1cnc2c(N)ncnc21)NC(C)(C)C(=O)OC1CCC1 (single isomer, unassigned) [Example 17B]			6.7	18.4
15.36	CCCCCCOC(=O)C(C)(C)NP(=O)(CO[C@H](C)Cn1cnc2c(N)ncnc21)O[C@@H](C)C(=O)OC(C)C (single isomer, unassigned) [Example 7A]			5.03	21
9.01	CCCCOC(=O)C(C)(C)NP(=O)(CO[C@H](C)Cn1cnc2c(N)ncnc21)O[C@H](C)C(=O)OC(C)C (stereo partly drawn) [Example 26, Butyl 2-((((((R)-1-(6-amino-9H-purin-9-yl)propan-2-yl)oxy)methyl)(((R)-1-isopropoxy-1-oxopropan-2-yl)oxy)phosphoryl)amino)-2-methylpropanoate]	3.1	8.74		
79.61	CCCCOC(=O)C(C)(C)NP(=O)(CO[C@H](C)Cn1cnc2c(N)ncnc21)O[C@@H](C)C(=O)OC(C)C (stereo partly drawn) [Example 25, Butyl 2-((((((R)-1-(6-amino-9H-purin-9-yl)propan-2-yl)oxy)methyl)(((S)-1-isopropoxy-1-oxopropan-2-yl)oxy)phosphoryl)amino)-2-methylpropanoate]	2.44	10.5		
4.28	CCCOC(=O)C(C)(C)NP(=O)(CO[C@H](C)Cn1cnc2c(N)ncnc21)O[C@H](C)C(=O)OC(C)C (stereo partly drawn) [Example 23, Propyl 2-((((((R)-1-(6-amino-9H-purin-9-yl)propan-2-yl)oxy)methyl)(((R)-1-isopropoxy-1-oxopropan-2-yl)oxy)phosphoryl)amino)-2-methylpropanoate]	2.67	8.19		
99.70	CC(C)OC(=O)COP(=O)(CO[C@H](C)Cn1cnc2c(N)ncnc21)NC1(C(=O)OC(C)C)CCCCC1 (stereo partly drawn) [Example 51, Isopropyl 1-((((((R)-1-(6-amino-9H-purin-9-yl)propan-2-yl)oxy)methyl)(2-isopropoxy-2-oxoethoxy)phosphoryl)amino) cyclohexane-1-carboxylate]	9.8	24.9		
71.6	CCCCCOC(=O)COP(=O)(CO[C@H](C)Cn1cnc2c(N)ncnc21)NC(C)(C)C(=O)OC(C)C (single isomer, unassigned) [Example 8B]			22.7	161
100.50	CC(C)OC(=O)COP(=O)(CO[C@H](C)Cn1cnc2c(N)ncnc21)NC1(C(=O)OC(C)C)CCC1 (stereo partly drawn) [Example 49, Isopropyl 1-((((((R)-1-(6-amino-9H-purin-9-yl)propan-2-yl)oxy)methyl)(2-isopropoxy-2-oxoethoxy)phosphoryl)amino) cyclobutane-1-carboxylate]	19.6	37		
99.36	CCCOC(=O)C(C)(C)NP(=O)(CO[C@H](C)Cn1cnc2c(N)ncnc21)OCC(=O)OC(C)C (stereo partly drawn) [Example 21, Propyl 2-((((((R)-1-(6-amino-9H-purin-9-yl)propan-2-yl)oxy)methyl)(2-isopropoxy-2-oxoethoxy)phosphoryl)amino)-2-methylpropanoate]	6.15	12		
85.48	CC(C)COC(=O)C(C)(C)NP(=O)(CO[C@H](C)Cn1cnc2c(N)ncnc21)O[C@@H](C)C(=O)OC(C)C (stereo partly drawn) [Example 31, Isobutyl 2-((((((R)-1-(6-amino-9H-purin-9-yl)propan-2-yl)oxy)methyl)(((S)-1-isopropoxy-1-oxopropan-2-yl)oxy)phosphoryl)amino)-2-methylpropanoate]	2.39	7.57		
99.44	CC(C)OC(=O)COP(=O)(CO[C@H](C)Cn1cnc2c(N)ncnc21)NC1(C(=O)OC(C)C)CCCC1 (stereo partly drawn) [Example 45, Isopropyl 1-((((((R)-1-(6-amino-9H-purin-9-yl)propan-2-yl)oxy)methyl)(2-isopropoxy-2-oxoethoxy)phosphoryl)amino) cyclopentane-1-carboxylate]	15.6	62.6		
73.16	CCCCCCOC(=O)C(C)(C)NP(=O)(CO[C@H](C)Cn1cnc2c(N)ncnc21)OCC(=O)OC(C)C (single isomer, unassigned) [Example 6B]			2.14	7.99
	CC(C)OC(=O)[C@H](Cc1ccccc1)OP(=O)(CO[C@H](C)Cn1cnc2c(N)ncnc21)NC(C)(C)C(=O)OC(C)C (stereo partly drawn) [Example 32, Isopropyl 2-((((((R)-1-(6-amino-9H-purin-9-yl)propan-2-yl)oxy)methyl)(((S)-1-isopropoxy-1-oxo-3-phenylpropan-2-yl)oxy)phosphoryl)amino)-2-methylpropanoate]	3.34	23.2		
	CCOC(=O)C(C)(C)NP(=O)(CO[C@H](C)Cn1cnc2c(N)ncnc21)O[C@@H](C)C(=O)OC(C)C (stereo partly drawn) [Example 28, Ethyl 2-((((((R)-1-(6-amino-9H-purin-9-yl)propan-2-yl)oxy)methyl)(((S)-1-isopropoxy-1-oxopropan-2-yl)oxy)phosphoryl)amino)-2-methylpropanoate]	6.38	19.7		
	CCOC(=O)[C@H](C)OP(=O)(CO[C@H](C)Cn1cnc2c(N)ncnc21)NC(C)(C)C(=O)OC(C)C (stereo partly drawn) [Example 40, Isopropyl 2-((((((R)-1-(6-amino-9H-purin-9-yl)propan-2-yl)oxy)methyl)(((S)-1-ethoxy-1-oxopropan-2-yl)oxy)phosphoryl)amino)-2-methylpropanoate]	19.2	58.7		

SMILES	GI Tract stability [2] [%]	IC50 [1, 3] [nM]	IC50 [1, 4] [nM]	IC50 [1, 5] [nM]	IC50 [1, 6] [nM]
CCCCCOC(=O)C(C)(C)NP(=O)(CO[C@H](C)Cn1cnc2c(N)ncnc21)OCC(=O)OC(C)C (single isomer, unassigned) [Example 4B]	98.87			19.4	158
